In patent publication US10865196B2, “Compounds for treatment of cancer” (University of Tennessee Research Foundation, priority 2008, dated 2020):
“And” between values parts separate entries of the source, which are not always exact repeats. Equal values may be shown once. Read-outs that look alike come from different tables or passages of the source.

Legend:
[1] = test system: melanoma (A375, B16-F1) and prostate cancer cells (DU145, PC-3, LNCaP, PPC-1); experiment: SRB assay, range over melanoma and prostate cancer cell lines; type: cell-based; settings: for antiproliferative activity against melanoma and prostate cancer cell lines, in words: compared with 8f or parent compounds
Description: For melanoma assays, one human melanoma cell line (A375) and one mouse melanoma cell line (B16-F1) were used. […] Fibroblast cells were used as a control to determine the selectivity of these compounds against melanoma. Human dermal fibroblast cells were purchased from Cascade Biologics, Inc., Portland, Oreg., USA. […] Cells were exposed to a wide range of concentrations for 48 h in round-bottomed 96-well plates. […] After cells were air-dried overnight and stained with SRB solution, total proteins were measured at 560 nm with a plate reader.

B16-F1 = experiment: SRB antiproliferation assay, B16-F1 melanoma; type: cell-based, mouse
Source text: (§1) For melanoma assays, one human melanoma cell line (A375) and one mouse melanoma cell line (B16-F1) were used. […] Fibroblast cells were used as a control to determine the selectivity of these compounds against melanoma. Human dermal fibroblast cells were purchased from Cascade Biologics, Inc., Portland, Oreg., USA.

A375 = experiment: SRB antiproliferation assay, A375 melanoma; type: cell-based, human
Source text: as §1

PPC-1 = experiment: SRB antiproliferation assay, PPC-1 prostate cancer; settings: read-out: IC50 PPC-1, SRB
PC-3 = experiment: SRB antiproliferation assay, PC-3 prostate cancer; settings: read-out: IC50 PC-3, SRB
LNCaP = experiment: SRB antiproliferation assay, LNCaP prostate cancer; settings: read-out: IC50 LNCaP, SRB
DU 145 = experiment: SRB antiproliferation assay, DU 145 prostate cancer; settings: read-out: IC50 DU 145, SRB
[2] = Mus musculus, B16-F1, 48 h, SRB, 48 h, read-out: IC50 B16-F1 (converted)
[3] = Homo sapiens, A-375, 48 h, SRB, 48 h, read-out: IC50 A375 (converted)
[4] = range over the examined cell lines, read-out: IC50 over melanoma and prostate cancer cell lines
[5] = Mus musculus, B16-F1, SRB, read-out: IC50 B16-F1 (converted)
[6] = Homo sapiens, A-375, SRB, read-out: IC50 A375 (converted)
[7] = Mus musculus, B16-F1, read-out: IC50 B16-F1
[8] = Homo sapiens, A-375, read-out: IC50 A375

Row | IC50 (B16-F1; [2]) [µM] | IC50 (A375; [3]) [µM] | melting point | IC50 (B16-F1; [5]) [µM] | IC50 (A375; [6]) [µM] | SMILES | further results
1 | – | – | – | 6.9 | 15.2 | O=C(c1csc(-c2cc(F)c(F)c(F)c2)n1)c1c(F)c(F)c(F)c(F)c1F [16-16] | –
2 | – | – | – | 9.8 | 4.3 | O=C(c1csc(-c2ccccc2)n1)c1c(F)c(F)c(F)c(F)c1F [17-17] | –
3 | – | – | – | > 20 | > 20 | O=C(c1ccc2c(c1)OCO2)N1CCC(c2ccccc2)CC1 [19-19] | –
4 | – | – | – | > 20 | > 20 | O=C(c1ccc(F)cc1)N1CCC(c2ccccc2)CC1 [22-22] | –
5 | – | – | – | > 10 | > 10 | Cc1ccc(-c2nc(C(=O)c3ccc(F)cc3)cn2C(=O)c2ccc(F)cc2)cc1 [29-29] | –
6 | – | – | – | > 10 | > 10 | COc1cc(-c2nc(C(=O)c3ccc(F)cc3)cn2C(=O)c2ccc(F)cc2)cc(OC)c1OC [30-30] | –
7 | – | – | – | > 20 | 9.8 | O=C(c1cc(O)c(O)c(O)c1)c1csc(-c2ccccc2)n1 [33-33] | –
8 | – | – | – | > 10 | > 10 | COc1cc(C(=O)c2csc(-c3ccccc3)n2)cc(OC)c1O [34-34] | –

The remaining lines, values behind:

Row | SMILES | IC50 (B16-F1; [2]) [µM] | IC50 (A375; [3]) [µM] | melting point | IC50 (B16-F1; [5]) [µM] | IC50 (A375; [6]) [µM] | further results
9 | COc1cc(NC(=O)[C@@H]2CSC(c3ccccc3)N2)cc(OC)c1OC (mixture of isomers) [2a, (2RS,4R)-2-Phenyl-N-(3,4,5-trimethoxyphenyl)thiazolidine-4-carboxamide] | > 100 | > 100 | 158 to 159 °C | – | – | antiproliferative activity against melanoma and prostate cancer cell lines, in words [1]: potency against both cancer cell lines was lost
10 | COc1cc(NC(=O)[C@@H]2CSC(c3cc(OC)c(OC)c(OC)c3)N2)cc(OC)c1OC (mixture of isomers) [2b, (2RS,4R)—N,2-bis(3,4,5-trimethoxyphenyl)thiazolidine-4-carboxamide] | > 100 | > 100 | 147 to 149 °C | – | – | antiproliferative activity against melanoma and prostate cancer cell lines, in words [1]: potency against both cancer cell lines was lost
11 | COc1cc(NC(=O)[C@@H]2CSC(c3ccccc3)=N2)cc(OC)c1OC [4a, (4R)-2-Phenyl-N-(3,4,5-trimethoxyphenyl)-4,5-dihydrothiazole-4-carboxamide] | 38.3 ± 3.2 | 22.8 ± 1.6 | 121 to 122 °C and 122 to 123 °C | – | – | IC50 [1, 4]: 3.4 to 38.3 µM
12 | COc1cc(NC(=O)[C@@H]2CSC(c3ccccc3)=N2)cc(OC)c1OC [4b, (4R)-2-Phenyl-N-(3,4,5-trimethoxyphenyl)-4,5-dihydrothiazole-4-carboxamide] | – | – | – | – | – | IC50 (B16-F1; SRB, 48 h, listed as 4b(4S), read-out: IC50 B16-F1 (converted)): 30.4 ± 2.8 µM; IC50 (A375; SRB, 48 h, listed as 4b(4S), read-out: IC50 A375 (converted)): 13.6 ± 1.2 µM; IC50 (PPC-1; 96 h, listed as 4b(4S)): 3.4 ± 0.2 µM; IC50 (PC-3; 96 h, listed as 4b(4S)): 13.2 ± 2.1 µM; IC50 (LNCaP; 96 h, listed as 4b(4S)): 16.8 ± 1.8 µM
13 | O=C(c1ccccc1)c1csc(-c2ccccc2)n1 [8a, Phenyl (2-phenylthiazol-4-yl)-methanone] | > 100 | > 100 | 65 to 66 °C | – | – | –
14 | COc1ccc(C(=O)c2csc(-c3ccccc3)n2)cc1 [8b, (4-Methoxyphenyl)(2-phenylthiazol-4-yl)-methanone] | > 100 | > 100 | 105 to 106 °C | – | – | IC50 [1, 4]: > 20 µM
15 | COc1cccc(C(=O)c2csc(-c3ccccc3)n2)c1 [8c, (3-Methoxyphenyl)(2-phenylthiazol-4-yl)-methanone] | > 100 | > 100 | 43 to 44 °C | – | – | IC50 [1, 4]: > 20 µM
16 | COc1ccccc1C(=O)c1csc(-c2ccccc2)n1 [8d, (2-Methoxyphenyl)(2-phenylthiazol-4-yl)-methanone] | 59.4 | 70.3 | – | – | – | IC50 [1, 4]: > 20 µM
17 | COc1ccc(C(=O)c2csc(-c3ccccc3)n2)cc1OC [8e, (3,4-Dimethoxyphenyl)(2-phenylthiazol-4-yl)-methanone] | > 100 | > 100 | 89 to 91 °C | – | – | IC50 [1, 4]: > 20 µM
18 | COc1cc(OC)cc(C(=O)c2csc(-c3ccccc3)n2)c1 [8g, (3,5-Dimethoxyphenyl)(2-phenylthiazol-4-yl)-methanone] | 0.35 | 0.17 | 84 to 85 °C | – | – | IC50 ([1]; average over six cell lines, read-out: average IC50): 0.261 µM; IC50 [1, 4]: 0.17 to 0.424 µM
19 | O=C(c1csc(-c2ccccc2)n1)c1ccccc1F [8h, (2-Fluorophenyl)(2-phenylthiazol-4-yl)-methanone] | > 100 | > 100 | 77 to 79 °C | – | – | –
20 | O=C(c1ccccn1)c1csc(-c2ccccc2)n1 [8i, (2-Phenylthiazol-4-yl)-(pyridin-2-yl)-methanone] | – | – | 95 to 97 °C | – | – | antiproliferative activity against melanoma and prostate cancer cell lines, in words [1]: total loss of the anti-cancer activity
21 | CCCCCCCCCCCCCCCCC(=O)c1csc(-c2ccccc2)n1 [8j, 1-(2-Phenylthiazol-4-yl)-heptadecan-1-one] | 18.6 | 16 | 63 to 64 °C | – | – | –
22 | COc1cc(C(=O)c2csc(-c3ccc(C)cc3)n2)cc(OC)c1OC [8k, (2-p-Tolylthiazol-4-yl)-(3,4,5-trimethoxyphenyl)-methanone] | – | – | 116 to 119 °C | – | – | IC50 [1, 4]: 0.005 to 0.021 µM; IC50 (PC-3): 0.005 µM
23 | COc1ccc(-c2nc(C(=O)c3cc(OC)c(OC)c(OC)c3)cs2)cc1OC [8o, [2-(3,4-Dimethoxyphenyl)-thiazol-4-yl]-(3,4,5-trimethoxyphenyl)-methanone] | – | – | – | 0.161 | 0.034 | IC50 (PPC-1): 0.056 µM; IC50 (PC-3): 0.069 µM; IC50 (LNCaP): 0.038 µM; IC50 (DU 145): 0.102 µM
24 | COc1cc(C(=O)c2csc(-c3ccc([N+](=O)[O-])cc3)n2)cc(OC)c1OC [8p, [2-(4-Nitrophenyl)-thiazol-4-yl]-(3,4,5-trimethoxyphenyl)-methanone] | – | – | – | 0.056 | 0.038 | IC50 (PPC-1): 0.034 µM; IC50 (PC-3): 0.056 µM; IC50 (LNCaP): 0.039 µM; IC50 (DU 145): 0.095 µM
25 | COc1cc(C(=O)c2csc(-c3ccc(C(=O)O)cc3)n2)cc(OC)c1OC [8r, 4-[4-(3,4,5-Trimethoxybenzoyl)-thiazol-2-yl]-benzoic acid] | – | – | > 220 °C (dec.) | – | – | antiproliferative activity against melanoma and prostate cancer cell lines, in words [1]: total loss of the anti-cancer activity
26 | COC(=O)c1ccc(-c2nc(C(=O)c3cc(OC)c(OC)c(OC)c3)cs2)cc1 [8s, Methyl-4-[4-(3,4,5-trimethoxybenzoyl)-thiazol-2-yl]-benzoate] | – | – | 172 to 174 °C | – | – | antiproliferative activity against melanoma and prostate cancer cell lines, in words [1]: total loss of potency
27 | COc1cc(C(=O)c2csc(-c3ccc(N)cc3)n2)cc(OC)c1OC [8w, [2-(4-Amino-phenyl)-thiazol-4-yl]-(3,4,5-trimethoxy-phenyl)-methanone] | – | – | – | – | – | IC50 [1, 4]: 0.011 to 0.029 µM
28 | COc1cc(C(=O)c2csc(-c3cccs3)n2)cc(OC)c1OC [8z, [2-(Thiophen-2-yl)-thiazol-4-yl]-(3,4,5-trimethoxyphenyl)-methanone] | – | – | – | – | – | IC50 [1, 4]: 0.009 to 0.038 µM; IC50 (B16-F1; [7]): 0.038 ± 0.015 µM; IC50 (A375; [8]): 0.02 ± 0.007 µM; IC50 (LNCaP): 0.009 ± 0.001 µM; IC50 (DU 145): 0.022 ± 0.001 µM
29 | O=C(c1cc(O)c(O)c(O)c1)c1csc(-c2ccccc2)n1 [11f, (2-Phenyl-thiazol-4-yl)-(3,4,5-trihydroxy-phenyl)-methanone] | – | – | – | – | – | antiproliferative activity against melanoma and prostate cancer cell lines, in words [1]: complete loss of antiproliferative activity
30 | O=C(c1ccc(F)cc1)c1csc(-c2ccccc2)n1 [12-12] | – | – | – | > 10 | > 10 | –
31 | O=C(c1ccc(F)cc1)c1csc(-c2ccc(F)cc2)n1 [14-14] | – | – | – | > 10 | > 10 | –
32 | CCc1cc(C(=O)c2csc(-c3ccccc3)n2)cc(OC(F)(F)F)c1OC(=O)CCl [18-18] | – | – | – | – | – | IC50 (PPC-1): ~10 µM; IC50 (PC-3): ~10 µM; IC50 (LNCaP): ~10 µM; IC50 (DU 145): ~10 µM
33 | COc1cc(C(=O)c2csc(-c3ccc(N)cc3)n2)cc(OC)c1OC [26-26] | – | – | – | – | – | IC50 (B16-F1; [7]): 0.014 µM; IC50 (A375; [8]): 0.011 µM
34 | CCCCCCCCCCCCCCCCNC(=O)[C@@H]1CSC(c2ccc(NC(C)=O)cc2)N1 (some centres unmarked) [ATCAA-1, reference compound] | – | – | – | – | – | IC50 [1, 4]: 0.4 to 2.2 µM; IC50 (B16-F1; SRB, 48 h, read-out: IC50 B16-F1 (converted)): 2.2 ± 0.3 µM; IC50 (A375; SRB, 48 h, read-out: IC50 A375 (converted)): 2.1 ± 0.2 µM; IC50 (PPC-1; 96 h): 0.4 ± 0.1 µM; IC50 (LNCaP; 96 h): 1 ± 0.1 µM; IC50 (DU 145; 96 h): 1.7 ± 0.1 µM
35 | COc1cc(NC(=O)c2csc(-c3ccccc3)n2)cc(OC)c1OC [compound 5, 2-Phenyl-N-(3,4,5-trimethoxyphenyl)thiazole-4-carboxamide] | > 100 | > 100 | 157 to 158 °C | – | – | antiproliferative activity against melanoma and prostate cancer cell lines, in words [1]: did not show any cytotoxicity
